Measurements reported in patent US6653317B2, “Pyrimidine 3-oxide compounds for inducing/stimulating hair growth and/or retarding hair loss” (Societe l'Oreal S.A., priority 1998, dated 2003).

biological target: T1, prostaglandin endo-peroxidesynthase (PGHS-1) (Ovis aries, UniProt P05979); assay: Measurement of the prostaglandin-endoperoxide synthase (PGHS-1) activating power (oxygen consumption, Clark electrode); type: biochemical, sheep; settings: test compound 0.5 mM; oxidation of arachidonic acid, 37° C., pH 8.00; % relative to the values obtained with the control
T1 construct: isolated from sheep seminal glands; purchased Cayman Chemical 60100; host or cells: sheep seminal glands (tissue-derived)
T1 sequence (P05979 25-600): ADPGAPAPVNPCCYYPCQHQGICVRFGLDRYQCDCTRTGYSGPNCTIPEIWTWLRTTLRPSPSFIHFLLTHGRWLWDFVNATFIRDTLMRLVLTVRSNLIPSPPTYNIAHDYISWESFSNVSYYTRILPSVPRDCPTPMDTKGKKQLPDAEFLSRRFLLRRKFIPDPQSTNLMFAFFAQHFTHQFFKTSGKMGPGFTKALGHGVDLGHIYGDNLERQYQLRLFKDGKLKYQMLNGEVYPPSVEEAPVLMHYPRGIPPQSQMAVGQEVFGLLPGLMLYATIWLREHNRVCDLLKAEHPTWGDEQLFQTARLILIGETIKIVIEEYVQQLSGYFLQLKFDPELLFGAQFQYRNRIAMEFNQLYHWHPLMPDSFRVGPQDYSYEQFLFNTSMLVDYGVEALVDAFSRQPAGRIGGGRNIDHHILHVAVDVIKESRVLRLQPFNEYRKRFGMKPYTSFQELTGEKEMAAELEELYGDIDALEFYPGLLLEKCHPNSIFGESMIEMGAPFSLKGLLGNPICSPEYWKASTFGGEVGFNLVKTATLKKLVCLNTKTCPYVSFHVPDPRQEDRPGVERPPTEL
Description: The amount of oxygen required for the oxidation of arachidonic acid was measured by means of the cyclooxygenase activity of the prostaglandin-endo-peroxide synthase, in the presence or absence of the test compound.
The oxygen consumption measurements were taken using a Clark electrode connected to a YSI 5300 oxymeter marketed by Yellow Spring Instruments.
These measurements were taken in an open chamber with constant stirring at a temperature of 37° C.
If a graph recorder was used, the oxygen consumption measurement is expressed in the form of a curve, the maximum slope of which makes it possible to determine the initial rate of the reaction, and from which it is possible to calculate the period for which the initial reaction rate is maintained.
The curve thus obtained, in the absence of any substance other than the ingredients required for the enzymatic reaction, provides the basal activity of the enzyme. The initial rate and the period for which this rate is maintained can be determined under these conditions in a reaction comprising only the enzyme and its substrate.
The activity of the test compounds was measured under the same conditions, by adding the test compound to the reaction medium. The activity of the test compound with respect to cyclooxygenase was evaluated by means of the variation of the slope and the variation of the period for which the maximum rate was maintained.
A solution of 0.1 M Tris and 5 mM EDTA at pH=8.00 (TE solution) was prepared.
The substrate was formulated in the form of a stock solution of potassium arachidonate according to the supplier's procedure (Interchim, France).
The test compounds were prepared in the form of a stock solution with a titre of 5 mM, in a water/alcohol mixture (80/20) and were tested with the same batch of enzyme.
At t=0, 380 μl of TEA buffer preheated to 37° C. were introduced into the measuring chamber and maintained to equilibrate for at least one minute.
At t=1, 300 units of enzyme (PGHS) were introduced.
Recording was initiated, and the mixture was again permitted to stabilize for one minute. The recording obtained provided the reaction baseline.
After a further minute, 10 μl of substrate were introduced and the oxygen consumption was recorded for 2 to 3 minutes.
The initial reaction rate and the period for which this rate was maintained were thus determined.
The experimental conditions were identical to those above, except that the TEA buffer preheated to 37° C. was replaced by an identical buffer containing the test compound at a concentration of 0.5 mM.
The following results are expressed as a % relative to the values obtained with the control.

Activation	Compound
+37%	CCCCCCNc1ccnc(N)[n+]1[O-] [Example 1, 2-Amino-4-hexylaminopyrimidine 3-Oxide]
+11%	CCCCCCCCCCCCNc1ccnc(N)[n+]1[O-] [Example 2, 2-Amino-4-dodecylaminopyrimidine 3-Oxide]
+14%	CCCCCCCCNc1ccnc(N)[n+]1[O-] [Example 3, 2-Amino-4-octylaminopyrimidine 3-Oxide]
+8%	CCCCCCCCNc1cc(OCCCC)nc(N)[n+]1[O-] [Example 17, 2-Amino-4-octylamino-6-butyloxypyrimidine 3-Oxide]
